Target: T1, human TAS1R2-I486V (subunit alone) (Homo sapiens, UniProt Q8TE23, I486V)
T1 construct: expressed in transfected cells; host or cells: HEK293T-Gα16gust44
T1 sequence (Q8TE23 20-839 I486V): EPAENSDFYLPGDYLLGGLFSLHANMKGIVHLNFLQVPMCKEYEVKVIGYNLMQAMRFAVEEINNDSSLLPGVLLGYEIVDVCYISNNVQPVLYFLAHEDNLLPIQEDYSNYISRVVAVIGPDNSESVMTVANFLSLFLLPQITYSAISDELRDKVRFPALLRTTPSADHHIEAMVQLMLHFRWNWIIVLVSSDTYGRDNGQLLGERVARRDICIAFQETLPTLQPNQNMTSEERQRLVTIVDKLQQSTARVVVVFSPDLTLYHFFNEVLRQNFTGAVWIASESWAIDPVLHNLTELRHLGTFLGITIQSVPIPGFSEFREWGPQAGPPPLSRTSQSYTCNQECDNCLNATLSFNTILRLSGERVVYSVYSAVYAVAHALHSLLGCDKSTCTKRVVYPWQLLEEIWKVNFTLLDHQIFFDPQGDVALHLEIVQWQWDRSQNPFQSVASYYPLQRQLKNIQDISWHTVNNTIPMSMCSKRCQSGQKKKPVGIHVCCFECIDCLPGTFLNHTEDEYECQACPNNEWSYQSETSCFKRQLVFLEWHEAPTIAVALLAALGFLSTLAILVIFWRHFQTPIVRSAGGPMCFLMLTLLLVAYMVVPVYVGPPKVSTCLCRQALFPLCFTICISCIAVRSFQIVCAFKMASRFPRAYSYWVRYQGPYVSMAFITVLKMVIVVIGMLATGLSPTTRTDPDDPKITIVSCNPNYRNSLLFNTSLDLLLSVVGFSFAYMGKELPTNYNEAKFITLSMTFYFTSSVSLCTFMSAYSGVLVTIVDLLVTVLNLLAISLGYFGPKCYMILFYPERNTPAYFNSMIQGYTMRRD
Assay: Calcium mobilisation assay, TAS1R2-I486V subunit alone
Assay type: cell-based
From the text: The coding sequences for TAS1R2 and TAS1R3 were commercially synthesised, and the human codon was optimised for expression in human cells. The coding sequences of human TAS1R2 and TAS1R3 were subcloned and inserted into the mammalian expression vectors pcDNA6/myc-HisA and pcDNA4/myc-HisA (Invitrogen; Thermo Fisher Scientific; Illkirch, France) between the EcoRI and NotI restriction sites, generating the plasmids pcDNA6-TAS1R2 and pcDNA4-TAS1R3, respectively. To increase protein expression in mammalian cells, an upstream start codon was used, which was a sequence called MAX, corresponding to the QBI SP163 element also described in pcDNA4-HisMax (Invitrogen; Thermo Fisher Scientific; Illkirch, France). To measure the expression level of the receptor by immunohistochemistry, we used the FLAG sequence ([…]) in the C-terminal position, which encodes the FLAG tag epitope. […]
The HEK293T cells were kindly provided by Jay P. Slack (Givaudan Flavors Corporation; Cincinnati, OH, USA). […] The fluorescence intensity was measured for 90 s (excitation 488 nm, emission 510 nm) in an automated fluorometric FlexStation®3 Multi-Mode microplate reader (Molecular Devices; San Jose, CA, USA). […] The Ca^2+ changes were expressed as fractional changes in fluorescent light intensity: ΔF/F = (F − F0)/F0, where F was the fluorescent light intensity at each point, and F0 was the value of emitted fluorescent light prior to stimulus application. To calculate dose–response relationships, the changes in fluorescence upon stimulus application were averaged, mock-subtracted and baseline-corrected. […] The half-maximal effective concentrations (EC50 values) and maximal signal amplitudes were calculated using SigmaPlot software (version 15.0) (Systat Software; San Jose, CA, USA).
For in vitro calcium mobilisation assay performed on hTAS1R2-SNPs, hTAS1R3-SNPs and mTAS1R3-I60T, 6 to 7 concentrations were tested for each sweet compound, plus buffer alone. All concentration–receptor combinations were measured in duplicate, and each experiment was repeated at least 4 times (8 wells/concentration). […]

- EC50: 124 ± 14.1 µM
- R1 = Variant EC50/WT EC50: 1.4
- Max ΔF/F0 (maximal signal amplitude): 0.39 ± 0.02
SMILES: C=C(C)[C@@H]1CC=C(/C=N/O)CC1 [Perillartine, perillartine]
